Tests used:
[1] = target: T1, Pin1 WW domain (Pin1–HRP) (Homo sapiens, UniProt Q13526); experiment: ELEBA competitive binding Kd-obs determination; conditions: for Kd: competitive with plate-linked L1, concentration at which % Pin1-HRP bound to the plate is 50%, purified resynthesized ligands, 200 pM Pin1–HRP
T1 construct: purchased R&D Systems
Protocol: Concentration-dependent ELEBAs were performed for ligands 1{2, d}, 1{18, l}, cis-1{2, n}, and trans-1{2, n} obtained by large-scale manual solid-phase synthesis and purification. The cis- and trans-isomers of 1{2, d} were separated by HPLC. The two diastereomers (∼ 1:1) of 1{18, l} were used as a mixture because they were inseparable in our systems. Competitive dissociation constants (Kd-obs) were measured by ELEBA (Figure 4). Kd-obs values were normalized to percentage Pin1–HRP bound to the plate-linked ligand by setting the lowest concentration of competitive ligand in solution to 100% binding.[32]Kd-obs is defined as the concentration of a ligand where the % Pin1-HRP bound to the plate is 50%.
(§1) The Pin1 WW domain ligand, Fmoc–VPRpTPVGGGK–NH2, (100 μL/well, 245 μM stock solution) was covalently attached to a 96-well plate through the ε-amino group of the Lys side chain at pH 11.0, as published.[44] Ligands were dissolved in DMSO at stock concentrations of ca. 50 mM by weight. Competitive binding with plate-linked Fmoc–VPRpTPVGGGK–NH2L1 of pSer–Pro dipeptides was measured at ca. 600 μM for primary screening. In the primary assays, all library members were screened with the crude products. 1{1-21, d} were measured as mixtures of cis- and trans-isomers. Library members synthesized from racemic reagents, such as 1{1-21, c}, 1{1-21, l}, 1{1-21, q}, 1{3, a-q} and 1{8, a-q} were measured as diastereomeric mixtures. The library members were dissolved in DMSO as stock solutions with a concentration of about 37 mM based on estimated yields. The DMSO stock solution of each compound (4 μL) was added into a solution of recombinant Pin1–HRP (R&D Systems) in a PBS buffer with 2% BSA (pH = 7.3). DMSO (4 μL) was used as a negative control. The final volume of the solution was 250 μL, the final concentration of Pin1–HRP was 200 pM, and the estimated final compound concentration was 590 μM. The resulting solution was preincubated for 30 min at ambient temperature, and was added into two wells (100 μL each, for assay in duplicate) of the ligand-linked plate. The solutions were incubated for another 1 h. The solutions were removed by inverting and shaking the plate, and the plate was washed with buffer ([…], and 0.05% Tween 20 in PBS at pH 7.3) three times. A 1:1 solution of hydrogen peroxide and 3,3,5,5′-tetramethylbenzidine (100 μL) was added into each plate well, and incubated in the dark for 20 min. A 2N H2SO4 solution (50 μL) was added to each well to quench the reaction, and the absorbance of was determined at 450 nm. The percentage of Pin1–HRP bound to the plate (% binding) was calculated by eq 1. To calculate the absorbance of a plate well in eq 1, the blank ligand-linked plate was predetermined at the same wavelength, and the absorbance of the blank well was subtracted from the absorbance of the same well containing the final solution. [drawing 2] 1
The competitive dissociation constants, Kd-obs, of cis-1{2, d}, trans-1{2, d}, 1{2,o}, and 1{18, m} were determined by ELEBA after the large-scale synthesis, HPLC purification, and quantification. The final concentrations of each compound were: 2.0, 10, 30, 50, 100, 200, 300, 500, 700, 1000, and 2000 μM. Ligands stock concentrations were 88 mM by weight, and the final concentrations for competitive dissociation constants (Kd) were 2000, 1000, 700, 500, 300, 200, 100, 50, 30, 10, and 5.0 μM. […]

[2] = target: T2, Pin1 WW domain (full-length 15N-Pin1) (Homo sapiens, UniProt Q13526); experiment: NMR 15N-1H HSQC chemical shift perturbation titration; assay type: binding; conditions: global two-state fit of WW domain NH CSPs; 295 K; pH 6.6; 48.6 μM Pin1; read-out: NMR CSP Kd
T2 construct: Full-length Pin1 was overexpressed and purified as described previously; made in house
From the text: The ELEBA was developed as a method for high-throughput screening, rather than as an absolute measure of binding affinity. […] Since L1 is linked to the plate, ELEBA is not to be taken as a direct measurement of binding affinity.[32] We undertook NMR measurements to determine the affinity and location of binding directly by NMR to distinguish between binding to the catalytic and WW domains of Pin1. Standard NMR backbone ^15N–^1H chemical shifts were mapped onto existing assignments of Pin1 by recording 2-D ^15N–^1H HSQC spectra of full-length ^15N-Pin1 at different ligand concentrations (Figures S2–S5). NH cross-peaks showing ligand-induced chemical shift perturbations (CSPs) identified residues affected by binding. The largest magnitude CSPs were localized to the WW domain.
Full-length Pin1 was overexpressed and purified as described previously.[47] The final NMR buffer conditions were 30 mM imidazole-D4, pH 6.6, with 30 mM NaCl, 0.03% NaN3, 5 mM DTT-d10, and 90%H2O/10%D2O. The ligand stock solutions included 2.4 and 24 mM for 1{18,l}; 2.4 and 16 mM for trans-1{2,d}; 2.4 and 12 mM for cis-1{2,d}; 2.4 mM and 12 mM for 1{2,n}. The stock concentrations were confirmed by standard 1-D ^1H NMR of the samples diluted in the buffer described above.
The NMR titration spectra were recorded at a nominal temperature of 295 K, on a Bruker Avance 700 MHz (16.4 T) spectrometer equipped with a cryogenically cooled TCI probe. Sequential resonance assignments for wild type Pin1 were from our prior publications.[34],[35],[46]−[48] Data processing and cross-peak analysis used Topspin 1.3 and 2.1 (Bruker Biospin, Inc.), and Sparky (T. D. Goddard and D. G. Kneller, SPARKY 3, University of California, San Francisco). The initial Pin1 concentration (apo-Pin1) was 48.6 μM. We recorded 2-D ^15N–^1H HSQC spectra per Mori et al.[51] after each addition of ligand to get NH binding isotherms (NH chemical shift perturbations as a function of the total ligand concentration). Each 2-D data set consisted of 128 FIDs (64 complex points), with 16 scans per FID and a recycle time of 1s. The ^1H^N spectral width was 15 ppm, centered at 4.703 ppm; the ^15N spectral width was 35.24 ppm, centered at 118 ppm. The binding-induced ^15N–^1H chemical shift perturbations (CSPs) were calculated by eq 3. [drawing 4] 3 [35]
The ΔδH and ΔδN terms are the amide ^1H and ^15N chemical shift differences relative to isolated Pin1. To estimate the ligand Kd values for WW domain binding, we globally fitted WW domain NH binding isotherms to the expression for the bound protein fraction in a standard two-state binding equilibrium, P + L ⇌ PL, as described in our previous Pin1 studies.[35] The monitored WW domain residues included K13, R14, M15, S16, G20, R21, A31, S32, Q33, W34, and E35. […]

[3] = target: T1, Pin1 WW domain (Pin1–HRP); experiment: ELEBA secondary binding assay; conditions: 270 μM; crude product; DMSO = 100%
Protocol: (§2) The library was screened by the ELEBA we reported previously.[44] The crude products resulting from diethyl ether precipitation were used for the primary and secondary ELEBA without additional purification. The concentrations of the crude products were estimated based on quantitative yields; actual concentrations were thus lower, depending on yield and purity. The library products were dissolved in DMSO as stock solutions for assays. […] Recombinant human Pin1 conjugated to horseradish peroxidase (Pin1–HRP) was used in the binding assays.[44] Fmoc-VPRpTPVGGGK-NH2 L2 was used as the positive control and DMSO was used as the negative control on each plate. The percent of Pin1–HRP bound to the plate was calculated by normalizing the binding with DMSO to be 100%. In the primary assays (Figure S1), 14 of the best library members were identified: 1{2,d}, 1{18,f}, 1{20,f}, 1{10, l}, 1{13, l}, 1{18, l}, 1{20, l}, 1{10, n}, 1{18, n}, 1{19, n}, 1{2, n}, 1{20, n}, 1{14, o}, 1{3, o}. In the secondary assay, these ligands were measured again at 270 μM, and three hits, 1{2, d}, 1{18, l} and 1{2, n}, were chosen for further analysis (Figure 3).
The best ligands from each group that blocked Pin1 WW domain binding of HRP-Pin1 bound to plate were reassayed at 270 μM to identify the best ligands through the same procedures above.

[4] = target: T1, Pin1 WW domain (Pin1–HRP); experiment: ELEBA primary screening assay of the library; assay type: binding; conditions: separate plate of groups A and B (L2 control 85.0443); crude library members; DMSO = 100%; mean of N = 2
Protocol: as §2
as §1, with “2] 1 […]” for “2] 1”
The Fmoc-Ser(2- […]
cyanoethylphosphate)-OH product was cleaved from the resin with TFA. 1H NMR indicated the presence of the Fmoc group, implying that the substrate was successfully attached to the resin (data not shown). To develop the coupling methods, 2-(2-naphthyl)ethylamine and propionic acid were reacted with the pSer–Pro resin. The resulting propanoyl-pSer–Pro–(2-(2-naphthyl)ethyl)-amide (1H NMR below) was excluded from the library assays.
Figure S1 (following pages). Ligands (group A – O) were screening using ELEBA at ca. 266 µM.
Fmoc-VPRpTPVGGGK-NH2 L2 was used as positive control at 76-87 µM from stock solutions […]
of 4.3-4.8 mM. […]

Pin1 WW domain = target: Pin1 WW domain; design: method as in PMID 10932246; conditions: read-out: affinity for the WW domain; cited from earlier work
Pin1 catalytic domain = test system: Pin1 catalytic domain; design: method as in PMID 10932246; conditions: cited from earlier work
full-length Pin1 = target: full-length Pin1; design: method as in PMID 10932246; conditions: read-out: affinity for full-length Pin1; cited from earlier work

T1 sequence (Q13526 whole entry, the tested form may be a part): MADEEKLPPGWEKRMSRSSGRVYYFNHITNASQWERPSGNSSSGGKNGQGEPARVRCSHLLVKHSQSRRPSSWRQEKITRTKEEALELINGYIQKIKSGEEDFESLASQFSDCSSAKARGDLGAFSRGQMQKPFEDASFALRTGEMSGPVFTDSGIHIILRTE
T2 sequence (Q13526 whole entry, the tested form may be a part): as above

Kd [1] [µM]	Kd [2] [µM]	Compound	further results
206 ± 3	208 ± 6	CC(C)(Oc1ccc(Cl)cc1)C(=O)NC(COP(=O)(O)O)C(=O)N1CCCC1C(=O)Nc1ccc2[nH]ncc2c1 (centres unmarked) [1{2, n}]	–
130 ± 3	105 ± 9	COc1ccc2c(c1)C(CC(=O)NC(COP(=O)(O)O)C(=O)N1CCCC1C(=O)NNC(=O)c1ccoc1)CC2=O (centres unmarked) [1{18, l}]	–
–	–	O=C(/C=C/c1c[nH]cn1)N[C@@H](COP(=O)(O)O)C(=O)N1CCC[C@H]1C(=O)N1CCOCC1 [1{20,b}]	ELEBA secondary screen, % of baseline activity [3]: ca. 140%; % of Pin1-HRP bound to plate-linked ligand [4]: 76.1089%
263 ± 6	95 ± 6	O=C(C=CSc1ccccc1)NC(COP(=O)(O)O)C(=O)N1CCCC1C(=O)Nc1ccc2[nH]ncc2c1 (stereo not drawn) [cis-1{2, d}]	relative potency cis vs trans isomer ([1]; ELEBA Kd-obs of cis-1{2, d} vs trans-1{2, d}): about three times as potent as trans-1{2, d}
820 ± 6	214 ± 25	O=C(C=CSc1ccccc1)NC(COP(=O)(O)O)C(=O)N1CCCC1C(=O)Nc1ccc2[nH]ncc2c1 (stereo not drawn) [trans-1{2, d}]	–
–	–	Fmoc–VPRpTPVGGGK–NH2 [Compound L1]	Kd (Pin1 WW domain): 7.7 µM; binding to the catalytic domain (Pin1 catalytic domain): no binding; Kd (full-length Pin1): 4.9 µM
